Experimental data from US9416127B2, “Triazole carboxamides and uses thereof” (Hoffmann-La Roche Inc., priority 2012, dated 2016).
Where a name gives a salt, the structure may show the parent alone.

Legend:
mouse TAAR1 = mouse TAAR1 (Mus musculus (Mouse), UniProt Q923Y8); test: Radioligand binding assay on mouse TAAR1; details: mouse TAAR1, HEK-293 membranes; first value of mouse/rat cell
Procedure: (§1) Construction of TAAR Expression Plasmids and Stably Transfected Cell Lines
(§2) For the construction of expression plasmids the coding sequences of human, rat and mouse TAAR 1 were amplified from genomic DNA essentially as described by Lindemann et al.. The Expand High Fidelity PCR System (Roche Diagnostics) was used with 1.5 mM Mg^2+ and purified PCR products were cloned into pCR2.1-TOPO cloning vector (Invitrogen) following the instructions of the manufacturer. PCR products were subcloned into the pIRESneo2 vector (BD Clontech, Palo Alto, Calif.), and expression vectors were sequence verified before introduction in cell lines.
(§3) HEK293 cells (ATCC # CRL-1573) were cultured essentially as described by Lindemann et al. (2005). For the generation of stably transfected cell lines HEK293 cells were transfected with the pIRESneo2 expression plasmids containing the TAAR coding sequences (described above) with Lipofectamine 2000 (Invitrogen) according to the instructions of the manufacturer, and 24 hrs post transfection the culture medium was supplemented with 1 mg/ml G418 (Sigma, Buchs, Switzerland). After a culture period of about 10 d clones were isolated, expanded and tested for responsiveness to trace amines (all compounds purchased from Sigma) with the cAMP Biotrak Enzyme immunoassay (EIA) System (Amersham) following the non-acetylation EIA procedure provided by the manufacturer.
Radioligand Binding Assay on Mouse TAAR1
(§4) Membrane Preparation and Radioligand Binding.
(§5) HEK-293 cells stably expressing mouse TAAR1 were maintained at 37° C. and 5% CO2 in DMEM high glucose medium, containing fetal calf serum (10%, heat inactivated for 30 min at 56° C.), penicillin/streptomycin (1%), and 375 μg/ml geneticin (Gibco). Cells were released from culture flasks using trypsin/EDTA, harvested, washed twice with ice-cold PBS (without Ca^2+ and Mg^2+), pelleted at 1'000 rpm for 5 min at 4° C., frozen and stored at −80° C. Frozen pellets were suspended in 20 ml HEPES-NaOH (20 mM, pH 7.4) containing 10 mM EDTA and homogenized with a Polytron (PT 6000, Kinematica) at 14'000 rpm for 20 s. The homogenate was centrifuged at 48'000×g for 30 min at 4° C. Subsequently, the supernatant was removed and discarded, and the pellet resuspended in 20 ml HEPES-NaOH (20 mM, pH 7.4) containing 0.1 mM EDTA using the Polytron (20 s at 14'000 rpm). This procedure was repeated and the final pellet resuspended in HEPES-NaOH containing 0.1 mM EDTA and homogenized using the Polytron. Typically, aliquots of 2 ml membrane portions were stored at −80° C. With each new membrane batch the dissociation constant (Kd) was determined via a saturation curve. […] Nonspecific binding was defined as the amount of ^3[H]—(S)-4-[(ethyl-phenyl-amino)-methyl]-4,5-dihydro-oxazol-2-ylamine bound in the presence of 10 μM unlabeled ligand. All compounds were tested at a broad range of concentrations (10 pM to 10 μM) in duplicates. […] The 96 deep well plates were incubated for 1 hr at 4° C. Incubations were terminated by rapid filtration through Unifilter-96 plates (Packard Instrument Company) and glass filters GF/C (Perkin Elmer) presoaked for 1 hr in polyethylenimine (0.3%) and washed 3 times with 1 ml of cold binding buffer. After addition of 45 μl of Microscint 40 (PerkinElmer) the Unifilter-96 plate was sealed and after 1 hr the ratioactivity counted using a TopCount Microplate Scintillation Counter (Packard Instrument Company).

rat TAAR1 = rat TAAR1 (Rattus norvegicus (Rat), UniProt Q923Y9); test: Radioligand binding assay on rat TAAR1; details: rat TAAR1, HEK-293 membranes; second value of mouse/rat cell
Sequence of rat TAAR1 (Q923Y9 whole entry): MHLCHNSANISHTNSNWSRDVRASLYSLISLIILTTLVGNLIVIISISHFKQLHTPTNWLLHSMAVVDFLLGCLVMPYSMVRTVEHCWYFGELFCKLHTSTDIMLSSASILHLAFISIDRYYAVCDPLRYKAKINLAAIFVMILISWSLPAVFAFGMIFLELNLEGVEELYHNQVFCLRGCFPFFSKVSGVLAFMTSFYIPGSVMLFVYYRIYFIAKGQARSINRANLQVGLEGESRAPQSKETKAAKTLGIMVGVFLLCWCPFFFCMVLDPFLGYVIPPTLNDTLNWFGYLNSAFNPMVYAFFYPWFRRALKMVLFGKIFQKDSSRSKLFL
Procedure: as §1, §2, §3
Radioligand Binding Assay on Rat TAAR1
as §4
as §5, with “rat” for “mouse”, “[…]” for “pM”

Sequence of mouse TAAR1 (Q923Y8 whole entry): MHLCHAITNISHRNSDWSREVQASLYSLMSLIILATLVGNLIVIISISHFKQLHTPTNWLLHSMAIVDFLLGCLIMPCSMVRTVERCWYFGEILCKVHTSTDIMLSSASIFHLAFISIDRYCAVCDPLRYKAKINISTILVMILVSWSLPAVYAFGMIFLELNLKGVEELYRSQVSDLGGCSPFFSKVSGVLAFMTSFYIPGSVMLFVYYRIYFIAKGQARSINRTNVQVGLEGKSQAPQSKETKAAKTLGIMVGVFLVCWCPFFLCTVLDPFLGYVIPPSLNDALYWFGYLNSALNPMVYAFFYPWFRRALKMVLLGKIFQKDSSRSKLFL

Structure (SMILES)	Ki (mouse TAAR1)	Ki (rat TAAR1)
O=C(Nc1ccc(C2CCNC2)cc1)c1cn(-c2ccc(OC(F)F)cc2)nn1 (racemic) [Example 33, (RS)-1-(4-(Difluoromethoxy)phenyl)-N-(4-(pyrrolidin-3-yl)phenyl)-1H-1,2,3-triazole-4-carboxamide]	0.0049 µM	0.0189 µM
O=C(Nc1ccc(C2CCNC2)cc1)c1cnn(-c2ccccc2)n1 (racemic) [Example 34, (RS)-2-Phenyl-N-(4-(pyrrolidin-3-yl)phenyl)-2H-1,2,3-triazole-4-carboxamide]	0.0032 µM	0.001 µM
O=C(Nc1ccc(C2CCCNC2)cc1)c1cnn(-c2ccccc2)n1 (racemic) [Example 35, (RS)-2-Phenyl-N-(4-(piperidin-3-yl)phenyl)-2H-1,2,3-triazole-4-carboxamide]		0.0017 µM
O=C(Nc1ccc([C@H]2CNCCO2)cc1)c1cnn(-c2ccccc2)n1 [Example 1, (S)—N-(4-(Morpholin-2-yl)phenyl)-2-phenyl-2H-1,2,3-triazole-4-carboxamide hydrochloride]	0.0012 µM	0.0013 µM
Cc1nn(-c2ccccc2)nc1C(=O)Nc1ccc([C@H]2CNCCO2)cc1 [Example 2, (S)-5-Methyl-N-(4-(morpholin-2-yl)phenyl)-2-phenyl-2H-1,2,3-triazole-4-carboxamide hydrochloride]	0.0015 µM	0.0008 µM
O=C(Nc1ccc([C@H]2CNCCO2)cc1)c1cnn(-c2ccc(Cl)cc2)n1 [Example 6, (S)-2-(4-Chlorophenyl)-N-(4-(morpholin-2-yl)phenyl)-2H-1,2,3-triazole-4-carboxamide hydrochloride]	0.0004 µM	0.0002 µM
Cc1nn(-c2ccccc2)nc1C(=O)Nc1ccc([C@@H]2CNCCO2)cc1 [Example 7, (R)-5-Methyl-N-(4-(morpholin-2-yl)phenyl)-2-phenyl-2H-1,2,3-triazole-4-carboxamide hydrochloride]	0.0027 µM	0.0002 µM
O=C(Nc1ccc([C@@H]2CNCCO2)cc1)c1cnn(-c2ccccc2)n1 [Example 8, (R)—N-(4-(Morpholin-2-yl)phenyl)-2-phenyl-2H-1,2,3-triazole-4-carboxamide hydrochloride]	0.0014 µM	0.0008 µM
O=C(Nc1ccc([C@H]2CNCCO2)cc1)c1cnn(-c2ccc(F)cc2)n1 [Example 9, (S)-2-(4-Fluorophenyl)-N-(4-(morpholin-2-yl)phenyl)-2H-1,2,3-triazole-4-carboxamide hydrochloride]	0.0004 µM	0.0006 µM
O=C(Nc1ccc([C@H]2CNCCO2)cc1)c1cnn(-c2ccc(C(F)(F)F)cc2)n1 [Example 10, (S)—N-(4-(Morpholin-2-yl)phenyl)-2-(4-(trifluoromethyl)phenyl)-2H-1,2,3-triazole-4-carboxamide hydrochloride]	0.0004 µM	0.0002 µM
O=C(Nc1ccc([C@H]2CNCCO2)cc1)c1cnn(-c2cccc(F)c2)n1 [Example 11, (S)-2-(3-Fluorophenyl)-N-(4-(morpholin-2-yl)phenyl)-2H-1,2,3-triazole-4-carboxamide hydrochloride]	0.0003 µM	0.0004 µM
O=C(Nc1ccc([C@H]2CNCCO2)cc1)c1cnn(-c2cccc(Cl)c2)n1 [Example 12, (S)-2-(3-Chlorophenyl)-N-(4-(morpholin-2-yl)phenyl)-2H-1,2,3-triazole-4-carboxamide hydrochloride]	0.0002 µM	0.0002 µM
O=C(Nc1ccc([C@H]2CNCCO2)cc1)c1cnn(-c2cccc(C(F)(F)F)c2)n1 [Example 13, (S)—N-(4-(Morpholin-2-yl)phenyl)-2-(3-(trifluoromethyl)phenyl)-2H-1,2,3-triazole-4-carboxamide hydrochloride]	0.0003 µM	0.0006 µM
O=C(Nc1ccc([C@H]2CNCCO2)cc1)c1cnn(-c2ccc(OC(F)(F)F)cc2)n1 [Example 15, (S)—N-(4-(Morpholin-2-yl)phenyl)-2-(4-(trifluoromethoxy)phenyl)-2H-1,2,3-triazole-4-carboxamide hydrochloride]	0.0002 µM	0.0001 µM
O=C(Nc1ccc([C@H]2CNCCO2)cc1)c1cnn(-c2ccc(OC(F)F)cc2)n1 [Example 16, (S)-2-(4-(Difluoromethoxy)phenyl)-N-(4-(morpholin-2-yl)phenyl)-2H-1,2,3-triazole-4-carboxamide hydrochloride]	0.0003 µM	0.0002 µM
Cc1ccc(-n2cc(C(=O)Nc3ccc([C@H]4CNCCO4)cc3)nn2)cc1 [Example 17, (S)—N-(4-(Morpholin-2-yl)phenyl)-1-p-tolyl-1H-1,2,3-triazole-4-carboxamide hydrochloride]	0.0013 µM	0.0174 µM
Cc1ccc(-n2ncc(C(=O)Nc3ccc([C@H]4CNCCO4)cc3)n2)cc1 [Example 18, (S)—N-(4-(Morpholin-2-yl)phenyl)-2-p-tolyl-2H-1,2,3-triazole-4-carboxamide hydrochloride]	0.0007 µM	0.0016 µM
COc1ccc(-n2cc(C(=O)Nc3ccc([C@H]4CNCCO4)cc3)nn2)cc1 [Example 19, (S)-1-(4-Methoxyphenyl)-N-(4-(morpholin-2-yl)phenyl)-1H-1,2,3-triazole-4-carboxamide hydrochloride]	0.0016 µM	0.0388 µM
COc1ccc(-n2ncc(C(=O)Nc3ccc([C@H]4CNCCO4)cc3)n2)cc1 [Example 20, (S)-2-(4-Methoxyphenyl)-N-(4-(morpholin-2-yl)phenyl)-2H-1,2,3-triazole-4-carboxamide hydrochloride]	0.0014 µM	0.0019 µM
CCOc1ccc(-n2cc(C(=O)Nc3ccc([C@H]4CNCCO4)cc3)nn2)cc1 [Example 21, (S)-1-(4-Ethoxyphenyl)-N-(4-(morpholin-2-yl)phenyl)-1H-1,2,3-triazole-4-carboxamide hydrochloride]	0.0018 µM	0.0293 µM
CCOc1ccc(-n2ncc(C(=O)Nc3ccc([C@H]4CNCCO4)cc3)n2)cc1 [Example 22, (S)-2-(4-Ethoxyphenyl)-N-(4-(morpholin-2-yl)phenyl)-2H-1,2,3-triazole-4-carboxamide hydrochloride]	0.0008 µM	0.001 µM
Cc1cccc(-n2ncc(C(=O)Nc3ccc([C@H]4CNCCO4)cc3)n2)c1 [Example 23, (S)—N-(4-(Morpholin-2-yl)phenyl)-2-m-tolyl-2H-1,2,3-triazole-4-carboxamide hydrochloride]	0.0011 µM	0.0005 µM
